Data from patent publication US20220127580A1, “COMPOSITIONS AND METHODS FOR REPROGRAMING NON-HEPATOCYTE CELLS INTO HEPATOCYTE CELLS” (priority 2019, published 2022).
Like-named read-outs stand apart in the source and are kept apart here.

Columns and labels:
[1] = Toxicity assay in hiHeps (TC50); assay type: cell-based, human; settings: human, hiHeps, 24 hours; values rounded for ease of use
Description: (§1) For the toxicity assay, hiHeps, HepG2 cells and PHHs were cultured in 96-well or 384-well plates. Compounds with 7-8 concentration dilutions were prepared in DMEM with 3% FBS to test HepG2 cells or in HCM to test PHHs and hiHeps. The final DMSO concentration under all conditions was consistent.
(§2) Compounds were tested in bipartite in a dilution series by half-log concentration increments. After the cells were treated with compounds for 24 hours, the supernatant was discarded and modified WEM (William's E medium supplemented with 2% B27 and 1% GlutaMAX) containing fluorescent probes was added to cells. […] After incubation for 30 minutes, the supernatant was discarded and cells were washed twice. Images were acquired using the Operetta High-Content Imaging System (PerkinElmer) with a 10× objective. […] After 1-4 hour chromogenic reaction in the incubator, the absorbance at 450 nm was read using a SpectraMax i3× (Molecular Devices). Image data were analyzed online using the Columbus Image Data Storage and Analysis System (PerkinElmer) with the following steps: (1) identification and counting of nuclei; (2) identification and counting of live cells labeled by CellTrace™ Calcein Red-Orange AM; and (3) identification and counting of live cells labeled by MitoTracker™ Deep Red FM. The viability of each parameter transformed from image data and the CCK-8 assay data were entered into Excel. The cellular viability of each parameter was expressed as the live cell ratio and normalized to the negative control. The TC50 values of these four parameters were calculated separately, and the minimum TC50 value was used as the final TC50.

hiHeps [2] = assay: Measurements of hepatic clearance in hiHeps suspension
Description: Briefly, a 1×10^6 cells/ml cell suspension and 2× drug solutions were prepared in incubation medium (William's E medium, 10 mM HEPES [pH 7.4], and 1% GlutaMAX). Reactions were started by adding 500 μl of drug solutions to 500 ul of hiHeps, giving a final substrate concentration of between 1 and 2 μM.
These concentrations were selected to be below the Km for most substrates but to still have sufficient analytical sensitivity. Reactions were performed in an orbital shaker in an incubator at 37° C. Then, 80 μl aliquots were removed at 0, 15, 30, 60, 90, 120, 180 and 240 minutes, and samples were quenched in 240 μl of methanol containing an isotope-labeled reference and frozen at −80° C. The substrates were quantified using the validated traditional LC-MS/MS methods described above. Assays were performed in triplicate.
The slope (−k) of the linear regression from the log [substrate] versus time plot was determined. […] No correction factor was made for any differential in vitro and in vivo binding, and the distribution of the drug between the plasma and blood was assumed to be unity.

[3] = cited from earlier work
CYP1A2 = system: CYP1A2
Description: (§3) Vehicle-treated groups were used to determine the basal activity. To measure the induced activity of PHHs, PHHs were cultured and induced under sandwich methods.

hiHeps [4] = assay: Toxicity assay in hiHeps (TC50); assay type: cell-based, human
Description: as §1, §2

HBV = HBV infection of hiHeps, response to anti-HBV compounds; assay type: cell-based
HepG2 cells = assay type: cell-based; settings: human
Description: For the toxicity assay, hiHeps, HepG2 cells and PHHs were cultured in 96-well or 384-well plates. Compounds with 7-8 concentration dilutions were prepared in DMEM with 3% FBS to test HepG2 cells or in HCM to test PHHs and hiHeps. The final DMSO concentration under all conditions was consistent. The detailed information of the tested compounds is listed in Table 7 ((Seglen, et. Al., Methods in Cell Biology 13, 29-83 (1976)), Zhong et. Al., Clin Chim Acta. 412, 1905-1911 (2011))).
Compounds were tested in bipartite in a dilution series by half-log concentration increments. […] After 1-4 hour chromogenic reaction in the incubator, the absorbance at 450 nm was read using a SpectraMax i3× (Molecular Devices). Image data were analyzed online using the Columbus Image Data Storage and Analysis System (PerkinElmer) with the following steps: (1) identification and counting of nuclei; (2) identification and counting of live cells labeled by CellTrace™ Calcein Red-Orange AM; and (3) identification and counting of live cells labeled by MitoTracker™ Deep Red FM. […] The cellular viability of each parameter was expressed as the live cell ratio and normalized to the negative control. The TC50 values of these four parameters were calculated separately, and the minimum TC50 value was used as the final TC50.

hiHeps [5] = system: hiHeps
CYP2B6 = system: CYP2B6
Description: as §3

[6] = hiHeps suspension, substrate 1 μM, parent disappearance
[7] = scaled from hiHeps CLint, well stirred model, human

Compound: CO[C@H]1/C=C/O[C@@]2(C)Oc3c(C)c(O)c4c(O)c(c(/C=N/N5CCN(C)CC5)c(O)c4c3C2=O)NC(=O)/C(C)=C\C=C\[C@H](C)[C@H](O)[C@@H](C)[C@@H](O)[C@@H](C)[C@H](OC(C)=O)[C@@H]1C [rifampin]
- CC50 at 24 h [1]: 100 µM

Compound: O=C(O)Cc1ccccc1Nc1c(Cl)cccc1Cl [Diclofenac]
- In vitro Clint hiHeps by (hiHeps [2]; [6]): 4.5 μL/min/10^6
- Scaled in vivo CLh by hiHeps (hiHeps [2]; [7]): 7.4 ml/mim/kg
- Observed CLh in vivo ([3]; in vivo): 7.6

Compound: C=CCN1CC[C@]23c4c5ccc(O)c4O[C@H]2C(=O)CC[C@@]3(O)[C@H]1C5 [Naloxone]
- In vitro Clint hiHeps by (hiHeps [2]; [6]): 14.2 μL/min/10^6
- Scaled in vivo CLh by hiHeps (hiHeps [2]; [7]): 13 ml/mim/kg

Compound: Cc1c(OCC(F)(F)F)ccnc1C[S+]([O-])c1nc2ccccc2[nH]1 (centres unmarked) [lansoprazole]
- induced activity of CYP1A2 (CYP1A2): could be induced

Compound: Cc1c(C)c2c(c(C)c1O)CCC(C)(COc1ccc(CC3SC(=O)NC3=O)cc1)O2 (centres unmarked) [troglitazone]
- chronic toxicity (cell death) (hiHeps [4]): caused extensive cell death

Compound: Cc1ncc2n1-c1ccc(Cl)cc1C(c1ccccc1F)=NC2 [Midazolam]
- In vitro Clint hiHeps by (hiHeps [2]; human, pH 7.4): 2.8 μL/min/10^6
- Scaled in vivo CLh by hiHeps (hiHeps [2]; human, pH 7.4): 5.3 ml/mim/kg
- Observed CLh in vivo ([3]; observed in vivo, previous reports): 5.3

Compound: interferon-alpha
- effect on all major HBV markers (HBV; HBV-infected hiHeps, 1000 U/mL after infection): inhibitory effect
- IFN-stimulated genes expression (HBV; hiHeps, 1000 U/mL): upregulation

Compound: CC(C)C(=O)Nc1ccc([N+](=O)[O-])c(C(F)(F)F)c1 [flutamide]
- cell viability (HepG2 cells): 100%
- toxicity after induction with rifampin (hiHeps [5]): increased after induction with rifampin

Compound: CCOc1ccc(NC(C)=O)cc1 [Phenacetin]
- In vitro Clint hiHeps by (hiHeps [2]; [6]): 18.3 μL/min/10^6
- Scaled in vivo CLh by hiHeps (hiHeps [2]; [7]): 14.1 ml/mim/kg

Compound: CC(=O)N1CCN(c2ccc(OCC3COC(Cn4ccnc4)(c4ccc(Cl)cc4Cl)O3)cc2)CC1 (centres unmarked) [ketoconazole]
- rescue from rifampin-increased toxicity of AFB1 and flutamide (hiHeps [5]): rescued

Compound: CN(C)CCCN1c2ccccc2Sc2ccc(Cl)cc21 [chlorpromazine]
- CC50 at 24 h [1]: ~25 µM

Compound: aflatoxin B1
- toxicity after induction with rifampin (hiHeps [5]): increased after induction with rifampin

Compound: C=C1[C@H](CO)[C@@H](O)C[C@@H]1n1cnc2c(=O)[nH]c(N)nc21 [entecavir]
- inhibition of HBV-DNA (HBV; HBV-infected hiHeps, LAM 1 μM, ETV 0.5 μM, especially during prolonged treatment): greatly inhibited

Compound: O=c1cc(-c2ccccc2)oc2ccc3ccccc3c12 [β-naphthoflavone]
- induced activity of CYP1A2 (CYP1A2): could be induced

Compound: CCC1(c2ccccc2)C(=O)NC(=O)NC1=O [Phenobarbital]
- induced activity of CYP2B6 (CYP2B6): could be induced
